Measurements taken from ChEMBL document CHEMBL1201862, “PubChem BioAssay data set” (2004).
Active and inactive are the calls of the source.

Assays:
[1] = molecular target: T1, Short transient receptor potential channel 4 (Mus musculus, UniProt Q9QUQ5); test: mouse TRPC4 channel inhibitors, dose response, cell-based, HEK293 TRPC4/mu-opioid, Fluo-4 calcium (AID 434942); assay type: functional;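 note: potency of inhibitors blocking the TRPC4 calcium response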
T1 sequence (Q9QUQ5 whole entry): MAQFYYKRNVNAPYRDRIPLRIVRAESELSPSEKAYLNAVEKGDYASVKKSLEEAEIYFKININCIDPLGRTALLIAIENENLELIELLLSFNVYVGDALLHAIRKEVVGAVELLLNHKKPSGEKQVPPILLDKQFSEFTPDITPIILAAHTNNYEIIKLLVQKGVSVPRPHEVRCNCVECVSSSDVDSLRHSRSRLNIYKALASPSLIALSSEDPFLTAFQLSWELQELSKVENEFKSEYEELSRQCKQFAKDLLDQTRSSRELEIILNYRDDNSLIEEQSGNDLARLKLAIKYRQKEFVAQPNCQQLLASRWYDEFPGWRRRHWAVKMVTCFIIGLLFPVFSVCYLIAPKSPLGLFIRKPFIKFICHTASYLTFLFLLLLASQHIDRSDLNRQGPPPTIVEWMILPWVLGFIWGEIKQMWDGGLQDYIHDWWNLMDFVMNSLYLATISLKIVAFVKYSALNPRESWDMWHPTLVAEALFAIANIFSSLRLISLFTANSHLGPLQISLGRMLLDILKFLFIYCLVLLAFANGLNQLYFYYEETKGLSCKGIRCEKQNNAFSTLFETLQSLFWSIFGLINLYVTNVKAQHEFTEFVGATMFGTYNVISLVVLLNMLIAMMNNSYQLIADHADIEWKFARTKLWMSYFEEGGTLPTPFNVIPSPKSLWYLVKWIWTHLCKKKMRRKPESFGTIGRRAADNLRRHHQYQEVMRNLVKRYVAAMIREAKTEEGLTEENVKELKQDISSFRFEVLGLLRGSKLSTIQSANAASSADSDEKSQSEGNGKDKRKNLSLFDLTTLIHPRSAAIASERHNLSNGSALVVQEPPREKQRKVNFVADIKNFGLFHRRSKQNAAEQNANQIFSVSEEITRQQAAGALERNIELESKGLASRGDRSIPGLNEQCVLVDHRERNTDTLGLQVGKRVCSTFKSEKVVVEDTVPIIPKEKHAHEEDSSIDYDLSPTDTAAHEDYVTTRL

[2] = molecular target: Luciferin 4-monooxygenase (Photinus pyralis, UniProt P08659); test: firefly luciferase enzyme inhibitors, dose response, biochemical, luminescence (AID 1891)
[3] = Luminescence Cell-Based Dose Confirmation HTS to Identify Inhibitors of Platelet Dense Granule Release. [Related pubchem assays: 1663 (Primary HTS), 1678 (Summary of Project)]; assay type: functional
[4] = molecular target: Cytochrome P450 3A4 (Homo sapiens, UniProt P08684); conditions: Potency;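 note: confirmatory qHTS run detecting inhibitors and substrates of CYP3A4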
[5] = test system: HEK293; test: NOD1 signaling inhibitors, primary screen, cell-based, luminescence, uHTS (AID 1578); assay type: functional; conditions: Homo sapiens
[6] = test system: HEK293; test: cells; assay type: functional, cell-based; conditions: Homo sapiens
[7] = test system: HEK293; test: cells; assay type: functional, cell-based; conditions: Homo sapiens; remark: listed apart in the source
[8] = test system: HEK293; test: NOD2 signaling inhibitors in MDP-stimulated cells, cell-based, uHTS, luminescence (AID 2001); assay type: functional; conditions: Homo sapiens
[9] = test system: INS1; test: beta cell apoptosis inhibitors, cytokine rescue, dose response, luminescence, retest (AID 449756); assay type: functional, cell-based; conditions: Rattus norvegicus;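 note: cell death triggered by IL-1 beta plus TNF-alpha plus IFN-gamma mixture; protective hits raise ATP signal compared with cytokine alone wells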
[10] = test system: BJ; test: cytotoxicity toward BJ-TERT fibroblasts, dose response, cell-based, RAS-independent, luminescence (AID 1933); assay type: functional; conditions: Homo sapiens
[11] = test system: BJ; test: cells; assay type: functional, cell-based; conditions: Homo sapiens
[12] = test system: BJ; test: cytotoxicity toward BJ-TERT-LT-ST fibroblasts, dose response, cell-based, RAS-independent, luminescence (AID 1935); assay type: functional; conditions: Homo sapiens;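 note: BJ fibroblasts immortalized with TERT plus LT and ST oncogenes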
[13] = cytotoxicity toward DRD oncogenic fibroblasts, dose response, cell-based, non-viral oncogenic, luminescence (AID 1934); assay type: functional; conditions: Homo sapiens
[14] = cytotoxicity in HEK-293T cells, dose response, cytotoxicity control for TCR NF-kB inhibitor project, luminescence, T-cell screen hits (AID 489026); assay type: functional, cell-based;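 note: cells exposed to compound about 14 hours before the viability readout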
[15] = Luminescence Cell-Based Dose Retest to Confirm Inhibitors of Cancer Stem Cells. [Related pubchem assays (depositor defined):AID2717, AID2721]; assay type: functional; conditions: Homo sapiens

Chain of Cytochrome P450 3A4 (P08684 whole entry): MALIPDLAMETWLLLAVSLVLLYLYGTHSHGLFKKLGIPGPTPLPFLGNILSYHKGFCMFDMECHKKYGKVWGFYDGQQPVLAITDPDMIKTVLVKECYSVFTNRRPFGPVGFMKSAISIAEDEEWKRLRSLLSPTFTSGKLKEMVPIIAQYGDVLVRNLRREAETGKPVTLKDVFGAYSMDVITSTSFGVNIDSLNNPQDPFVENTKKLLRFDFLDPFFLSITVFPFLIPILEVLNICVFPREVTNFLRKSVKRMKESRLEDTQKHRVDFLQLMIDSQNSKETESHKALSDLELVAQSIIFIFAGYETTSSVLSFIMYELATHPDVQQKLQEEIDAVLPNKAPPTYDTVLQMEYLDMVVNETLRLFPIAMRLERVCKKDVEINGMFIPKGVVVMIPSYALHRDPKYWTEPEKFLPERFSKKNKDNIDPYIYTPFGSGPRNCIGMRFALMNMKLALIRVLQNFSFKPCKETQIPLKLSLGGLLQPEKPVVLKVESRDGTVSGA
Chain of Luciferin 4-monooxygenase (P08659 whole entry): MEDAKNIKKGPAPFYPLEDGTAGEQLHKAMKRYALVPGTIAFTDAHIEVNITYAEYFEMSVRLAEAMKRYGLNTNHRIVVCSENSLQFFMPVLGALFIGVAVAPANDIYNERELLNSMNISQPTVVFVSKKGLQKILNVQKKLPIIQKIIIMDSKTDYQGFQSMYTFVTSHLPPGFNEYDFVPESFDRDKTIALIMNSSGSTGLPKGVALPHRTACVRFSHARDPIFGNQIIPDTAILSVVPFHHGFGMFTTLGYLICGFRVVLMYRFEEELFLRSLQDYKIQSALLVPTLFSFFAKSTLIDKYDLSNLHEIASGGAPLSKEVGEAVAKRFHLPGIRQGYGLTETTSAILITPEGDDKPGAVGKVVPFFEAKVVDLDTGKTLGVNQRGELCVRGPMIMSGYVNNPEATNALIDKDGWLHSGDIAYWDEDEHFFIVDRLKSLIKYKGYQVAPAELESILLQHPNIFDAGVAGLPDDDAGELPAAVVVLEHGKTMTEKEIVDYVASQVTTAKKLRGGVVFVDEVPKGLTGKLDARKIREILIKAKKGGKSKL

In the case of OCCNCc1cc(Br)ccc1OCc1ccc(F)cc1, the EC50 [1] is reported as 1.88 µM (active).

In the case of CCN(CC)Cc1cc(CCNC(=O)c2ccc(Cl)cc2)ccc1O, the EC50 [1] is reported as 4.73 µM (active).

With CCCCC(=O)N(c1ccc(C(=O)O)cc1)c1nc(-c2ccc(Cl)cc2)c(CC)s1 the EC50 [2] was > 112 µM (not active), the EC50 [3] was > 112 µM (not active) and the EC50 [1] was 10.6 µM (active).

For CC(=O)C1CCC2C3CC(C)C4=CC(=O)CC[C@@]4(C)C3C(O)C[C@@]12C (stereo partly drawn), the AC50 [4] was 31.6 µM (inconclusive).

For CC[C@]1(O)CC(O[C@@H]2CC(N(C)C)C(O)C(C)O2)c2c(cc3c(c2O)C(=O)c2c(O)cccc2C3=O)C1C(=O)OC (stereo partly drawn), the AC50 [4] was 39.8 µM (inconclusive).

With COC(C1CCCCC1)C(C)C(OCc1cccc(Br)c1)C(C)CO (stereo not drawn) the AC50 [4] was 3.16 µM (inconclusive).

With CC(Sc1n[nH]c2c3ccccc3nc-2n1)C(=O)N(C)C1CCCCC1 (stereo not drawn) the EC50 [5] was 4.74 µM (active), the IC50 [6] was 6.41 µM (active) and the IC50 [7] was 12.9 µM (active). The IC50 [8] was 6.67 µM (active) and the AC50 [9] was 16.1 µM (active).

In the case of CCOc1ccc(N(CC(=O)Nc2ccccc2C)S(=O)(=O)c2c(C)noc2C)cc1, the EC50 [10] is reported as 5.06 µM (active), the EC50 [11] is reported as 29.9 µM (active) and the EC50 [12] is reported as 16.9 µM (active). The EC50 [13] was 4.15 µM (active) and the IC50 [14] was > 80 µM (inactive).

In the case of CC1CC(O)[C@]2(O)[C@]13CC(=O)OC[C@@]2(C)[C@@](C)(O)C(=O)C3 (stereo partly drawn), the AC50 [4] is reported as 31.6 µM (inconclusive).

In the case of Nc1nc(/C(=C/CC(=O)O)C(=O)NC2C(=O)N3C(C(=O)O)=CCSC23)cs1 (stereo not drawn), the AC50 [4] is reported as 31.6 µM (inconclusive).

For Cc1nc(C2CCC3C4CCC5=CC(=O)CC[C@]5(C)C4CC[C@]23C)cs1 (stereo partly drawn), the EC50 [5] was 2.24 µM (active), the IC50 [6] was 3.42 µM (active) and the IC50 [7] was 9.14 µM (active). The IC50 [8] was 3.56 µM (active) and the AC50 [15] was 6.32 µM (active).

For NC(=O)c1nsc(C(=O)N(Cc2ccccc2F)C(C(=O)NCC2CCCO2)c2ccc(F)cc2)c1N (stereo not drawn), the EC50 [1] was 0.473 µM (active).

For CCCC(=O)Nc1nc2ccc(NC(=O)c3c(F)c(F)c(OC)c(F)c3F)cc2s1, the EC50 [10] was 4.47 µM (active), the EC50 [11] was > 150 µM (not active) and the EC50 [12] was 77.5 µM (inconclusive). For the same molecule, the EC50 [13] was 2.2 µM (active), the AC50 [15] was 0.367 µM (active) and the IC50 [14] was > 80 µM (inactive).

For O=C(c1ccc(Cl)cc1)C1CCCN(C2CCSCC2)C1 (stereo not drawn), the EC50 [1] was 0.531 µM (active).

In the case of COc1cc(/C=N/Nc2nc3c(c(=O)n(C)c(=O)n3C)n2Cc2ccccc2)ccc1OC(=O)c1ccco1, the EC50 [5] is reported as 5.22 µM (active), the IC50 [6] is reported as 3.73 µM (active) and the IC50 [7] is reported as 12.3 µM (active). For the same molecule, the IC50 [8] was 5.98 µM (active).

In the case of COC(=O)CC1C(C)(C)C(OC(C)=O)C2CC3=C4CC(=O)OC(c5ccoc5)[C@]4(C)CCC3[C@@]1(C)C2=O (stereo partly drawn), the AC50 [4] is reported as 1.58 µM (inconclusive).
